Assay [1] concerns the target human histamine H3 receptors (full-length H3, isoform 445) (Homo sapiens, UniProt Q9Y5N1). Conditions: hH3 binding IC50 (nM), inhibition of 1.4 nM [3H]-N-α-methylhistamine binding to CHO-K1 membranes expressing human H3, SPA, 1.5 hr.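 Further: scintillation counts read after the 1.5 hr incubation at room temperature with shaking, Imetit serving as reference control.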
Procedure: Histamine H3 SPA with the Agonist Radioligand [^3H]—N-α-methylhistamine
Reproducibility of the assay is such that IC50 curves can be generated in singlicate. Single poke (SP) testing was done in triplicate.
Membranes, prepared from CHO-K1 cells stably expressing the human histamine H3 receptor, were obtained from ACS.
Tested formula I compounds were provided as solubilized samples in neat DMSO. Serial dilutions were performed in DMSO.
Plates were read on a Perkin Elmer TopCount. CPM data were used to analyze unless DPM data generated by a quench curve were required.
• 1. 1 mg/ml BSA was added to assay buffer (AB) on day of assay. • 2. […] Buffer volume was split between beads and membranes to allow for polytroning of membranes prior to addition to beads. • a. […] Waited a minimum of 15 minutes prior to adding membranes (See b. below.). • b. […] The homogenized membrane mixture was combined with the beads and a minimum of 30 minutes was waited prior to dispensing to plate. • 3. Formula I compounds: For Single Poke, 2 μl 1 mM of a compound in accordance with formula I was dispensed to Optiplates (triplicate plates) for final concentration of 10 μM. […] Imetit (see below) was used as a control. • 4. […] 5 μl samples were calculated in quadruplicate on the β counter. […] (For IC50s, use final concentration on calculation tab of ABase template.)
• 1. […] 2 μl of the formula I compound dilution was mixed and then transferred into assay plates. DMSO was removed and 2 μl of 100 μM Imetit was added to the wells. • 3. 178 μl bead/membrane mixture was dispensed into the assay plate. • 4. 20 μl [^3H]-NAMH was added with Rapid Plate. The assay plate was sealed and incubated for 1.5 hr on RT shaker at speed ˜6.5. • 5. The assay plate was subsequently centrifuged at 1000 rpm for 10 minutes. • 6. The count was performed on TopCount using one of the 3H SPA H3 Quench programs.
The DPM data was analyzed when tSIS was less than that associated with 70% of full scale on the quench curve (tSIS<25%). Otherwise, CPM data was used.
The target in assay [2] is T1, human Histamine H3 receptor (hH3R) (Homo sapiens, UniProt Q9Y5N1).
T1 construct: expressed in transfected cells; host or cells: CHO cells (membranes)
T1 sequence (Q9Y5N1 whole entry): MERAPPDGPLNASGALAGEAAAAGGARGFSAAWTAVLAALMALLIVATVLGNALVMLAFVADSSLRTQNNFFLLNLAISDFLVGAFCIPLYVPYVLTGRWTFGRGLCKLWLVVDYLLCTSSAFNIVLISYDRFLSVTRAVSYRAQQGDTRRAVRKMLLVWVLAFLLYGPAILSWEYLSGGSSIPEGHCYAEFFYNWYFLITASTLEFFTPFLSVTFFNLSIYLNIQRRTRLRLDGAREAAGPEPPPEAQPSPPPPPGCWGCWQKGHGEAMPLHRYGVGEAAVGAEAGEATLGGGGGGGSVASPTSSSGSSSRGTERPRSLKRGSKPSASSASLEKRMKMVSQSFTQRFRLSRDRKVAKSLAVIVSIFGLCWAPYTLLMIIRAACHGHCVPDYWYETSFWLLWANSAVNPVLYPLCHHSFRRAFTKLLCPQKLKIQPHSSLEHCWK
As to the kind of experiment: Guanosine 5'-O-(3-[35S]thio)triphosphate [GTPγS] Binding Assay. The assay is classed as biochemical. Conditions: antagonist activity; membranes from CHO cells expressing hH3R, (R)-α-methyl histamine 30 nM, [35S]GTPγS 0.2 nM, 90 minutes. As to the method: Guanosine 5′-O-(3-[^35]thio)triphosphate [GTPγS] Binding Assay
The GTPγS binding assay can be used to investigate antagonist properties of compounds in CHO cells (Chinese Hamster Ovary) transfected with human Histamine H3 receptor (hH3R). […] To determine antagonist activity, (R)-α-methyl histamine (30 nM) is added in 96 well SPA plate with [^35S]GTPγS (0.2 nM) and various concentration of H3R antagonists. The GTPγS binding assay is started with addition of the mixture membrane/saponine/GDP and incubated for 90 minutes at room temperature. The amount of bound [^35S]GTPγS is determined by using the MicroBeta Trilux counter (PerkinElmer). The percentage of [^35S]GTPγS bound in each sample is calculated as a percentage of that bound control sample incubated in absence of H3 antagonist. Duplicate determinations are obtained for each concentration, and the data are analyzed using ExcelFit4 to obtain the IC50.
(In general: GTPγS is a poorly hydrolysed GTP analogue; its binding reports G protein activation.)

Experimental findings from patent US20100168105A1, “Spirocyclopropyl Piperidine Derivatives” (priority 2007, published 2010) are described below.

SMILES strings stand for the structures. pIC50: −log10 of the molar value.

Chain of human histamine H3 receptors (full-length H3, isoform 445) (Q9Y5N1 whole entry, canonical isoform): as the sequence (Q9Y5N1 whole entry) above

What is called IC50 is the concentration that inhibits the measured activity by half. Low values mean greater potency in that assay, high ones weaker potency in that assay. As to `COc1cccc(N2CCC3(CC2)CC3C(=O)N2CCN(C3CCC3)CC2)n1` (centres unmarked) [Example 41, (4-Cyclobutyl-piperazin-1-yl)-[6-(6-methoxy-pyridin-2-yl)-6-aza-spiro[2.5]oct-1-yl]-methanone], in assay [1], the IC50 came out at 542 nM.

Broadly, the pIC50 is the negative decadic logarithm of the IC50, by convention in mol/L. In turn, `O=C(C1CC12CCN(CCc1ccccc1)CC2)N1CCN(C2CCCCC2)CC1` (single isomer, unassigned) [Example 17, (4-Cyclohexyl-piperazin-1-yl)-(6-phenethyl-6-aza-spiro[2.5]oct-1-yl)-methanone] displayed an IC50 in assay [1] of 27.4 nM. For the same molecule, in assay [2], the pIC50 is 7.79.

With `O=C(C1CC12CCN(C1CCCCC1)CC2)N1CCN(C2CCC2)CC1` (single isomer, unassigned) [Example 26, (4-Cyclobutyl-piperazin-1-yl)-(6-cyclohexyl-6-aza-spiro[2.5]oct-1-yl)-methanone], in assay [1], the IC50 came to 1.35 nM. The negative-log IC50 (pIC50) in assay [2] was 8.18.

`O=C(C1CC12CCN(C1CCOCC1)CC2)N1CCN(C2CCCC2)CC1` (centres unmarked) [Example 12, (4-cyclopentylpiperazin-1-yl)(6-(tetrahydro-2H-pyran-4-yl)-6-azaspiro[2.5]octan-1-yl)methanone] gave an IC50 in assay [1] of 4.43 nM. The molecule also showed a pIC50 in assay [2] of 8.06.

`CNC(=O)CN1CCC2(CC1)CC2C(=O)N1CCN(C2CCC2)CC1` (centres unmarked) [Example 37, 2-[1-(4-Cyclobutyl-piperazine-1-carbonyl)-6-aza-spiro[2.5]oct-6-yl]-N-methyl-acetamide] showed an IC50 in assay [1] of 207 nM.

In assay [1], `COc1ccc(N2CCN(C(=O)C3CC34CCN(C3CCOCC3)CC4)CC2)cc1` (centres unmarked) [Example 15, [4-(4-Methoxy-phenyl)-piperazin-1-yl]-[6-(tetrahydro-pyran-4-yl)-6-aza-spiro[2.5]oct-1-yl]-methanone] yielded an IC50 of 322 nM.

For the molecule `O=C(C1CC12CCN(C1CCCOC1)CC2)N1CCN(C2CCC2)CC1` (centres unmarked) [Example 32, (4-Cyclobutyl-piperazin-1-yl)-[6-(tetrahydro-pyran-3-yl)-6-aza-spiro[2.5]oct-1-yl]-methanone], the IC50 in assay [1] is 15 nM. In assay [2], this molecule gave a pIC50 of 7.77.

`O=C(C1CC12CCN(CCc1ccccc1)CC2)N1CCN(C2CCCCC2)CC1` (single isomer, unassigned) [Example 18, (4-Cyclohexyl-piperazin-1-yl)-(6-phenethyl-6-aza-spiro[2.5]oct-1-yl)-methanone]: the IC50 in assay [1] came out at 407 nM. The pIC50 in assay [2] was 6.90.

Take `CC(C)N1CCN(C(=O)C2CC23CCN(C2CCOCC2)CC3)CC1` (centres unmarked) [Example 10, (4-Isopropylpiperazin-1-yl)(6-(tetrahydro-2H-pyran-4-yl)-6-azaspiro[2.5]octan-1-yl)methanone]: the IC50 in assay [1] was 9.02 nM. For the same molecule, the pIC50 in assay [2] is 8.49.

Regarding `Cc1cc(N2CCN(C(=O)C3CC34CCN(C3CCOCC3)CC4)CC2)ccn1` (centres unmarked) [Example 49, (4-(2-methylpyridin-4-yl)piperazin-1-yl)(6-(tetrahydro-2H-pyran-4-yl)-6-azaspiro[2.5]octan-1-yl)methanone], the pIC50 in assay [2] was 6.60.

In assay [1], `COc1ccc(N2CCC3(CC2)CC3C(=O)N2CCN(C3CCC3)CC2)cc1` (centres unmarked) [Example 39, (4-Cyclobutyl-piperazin-1-yl)-[6-(4-methoxy-phenyl)-6-aza-spiro[2.5]oct-1-yl]-methanone] had an IC50 of 361 nM.

On to `O=C(C1CC12CCN(c1ccc(C(F)(F)F)cn1)CC2)N1CCN(C2CCCCC2)CC1` (centres unmarked) [Example 46, (4-Cyclohexyl-piperazin-1-yl)-[6-(5-trifluoromethyl-pyridin-2-yl)-6-aza-spiro[2.5]oct-1-yl]-methanone], for which the IC50 in assay [1] worked out at 10000 nM.

In turn, `CN1CCC(N2CCC3(CC2)CC3C(=O)N2CCN(C)CC2)CC1` (centres unmarked) [Example 6, (4-Methyl-piperazin-1-yl)-[6-(1-methyl-piperidin-4-yl)-6-aza-spiro[2.5]oct-1-yl]-methanone] came in with an IC50 in assay [1] of 1300 nM.

`O=C(C1CC12CCN(C1CCOCC1)CC2)N1CCN(C2CCC2)CC1` (centres unmarked) [Example 8, (4-Cyclobutylpiperazin-1-yl)(6-(tetrahydro-2H-pyran-4-yl)-6-azaspiro[2.5]octan-1-yl)methanone] showed a 50% inhibitory concentration (IC50) in assay [1] of 4.1 nM. In addition, the pIC50 in assay [2] is 8.44.

Turning to `O=C(C1CC12CCN(C1CCOCC1)CC2)N1CCN(C2CCCCCC2)CC1` (centres unmarked) [Example 11, (4-Cycloheptylpiperazin-1-yl)(6-(tetrahydro-2H-pyran-4-yl)-6-azaspiro[2.5]octan-1-yl)methanone], in assay [1], the IC50 is 196 nM. The molecule also showed a pIC50 in assay [2] of 7.13.

Take `CCC(CC)CN1CCC2(CC1)CC2C(=O)N1CCN(C)CC1` (centres unmarked) [Example 3, [6-(2-Ethyl-butyl)-6-aza-spiro[2.5]oct-1-yl]-(4-methyl-piperazin-1-yl)-methanone]: the IC50 in assay [1] was found to be 1000 nM.

The molecule `O=C(C1CC12CCN(C1CCOCC1)CC2)N1CCN(c2ccccn2)CC1` (centres unmarked) [Example 13, (4-Pyridin-2-yl-piperazin-1-yl)-[6-(tetrahydro-pyran-4-yl)-6-aza-spiro[2.5]oct-1-yl]-methanone] returned an IC50 in assay [1] of 573 nM.

In the case of `Cc1ccc(N2CCC3(CC2)CC3C(=O)N2CCN(C3CCC3)CC2)cc1` (centres unmarked) [Example 45, (4-Cyclobutyl-piperazin-1-yl)-(6-p-tolyl-6-aza-spiro[2.5]oct-1-yl)-methanone], in assay [1], the IC50 stood at 791 nM.

Molecule `Cc1cnccc1N1CCN(C(=O)C2CC23CCN(C2CCOCC2)CC3)CC1` (centres unmarked) [Example 50, (4-(3-methylpyridin-4-yl)piperazin-1-yl)(6-(tetrahydro-2H-pyran-4-yl)-6-azaspiro[2.5]octan-1-yl)methanone] gave a pIC50 in assay [2] of 6.94.

`O=C(C1CC12CCN(c1ccccn1)CC2)N1CCN(C2CCC2)CC1` (centres unmarked) [Example 44, (4-Cyclobutyl-piperazin-1-yl)-(6-pyridin-2-yl-6-aza-spiro[2.5]oct-1-yl)-methanone] registered an IC50 in assay [1] of 736 nM.

For the molecule `CS(=O)(=O)c1ccc(N2CCC3(CC2)CC3C(=O)N2CCN(C3CCC3)CC2)cc1` (centres unmarked) [Example 38, (4-Cyclobutyl-piperazin-1-yl)-[6-(4-methanesulfonyl-phenyl)-6-aza-spiro[2.5]oct-1-yl]-methanone], the IC50 in assay [1] came out at 336 nM.

Take `CN1CCN(C(=O)C2CC23CCN(C/C=C/c2ccccc2)CC3)CC1` (centres unmarked) [Example 4, (4-Methyl-piperazin-1-yl)-[6-((E)-3-phenyl-allyl)-6-aza-spiro[2.5]oct-1-yl]-methanone]: the IC50 in assay [1] was found to be 800 nM.

In assay [2], `O=C(C1CC12CCN(C1CCOCC1)CC2)N1CCN(c2cccnc2)CC1` (centres unmarked) [Example 48, (4-(pyridin-3-yl)piperazin-1-yl)(6-(tetrahydro-2H-pyran-4-yl)-6-azaspiro[2.5]octan-1-yl)methanone] showed a pIC50 of 6.51.

Take `CN1CCN(C(=O)C2CC23CCN(CCc2ccccc2)CC3)CC1` (centres unmarked) [Example 5, (4-Methyl-piperazin-1-yl)-(6-phenethyl-6-aza-spiro[2.5]oct-1-yl)-methanone]: in assay [1], the IC50 was determined as 640 nM.

Regarding `COC(=O)c1ccc(N2CCC3(CC2)CC3C(=O)N2CCN(C3CCC3)CC2)cc1` (centres unmarked) [Example 40, 4-[1-(4-Cyclobutyl-piperazine-1-carbonyl)-6-aza-spiro[2.5]oct-6-yl]-benzoic acid methyl ester], in assay [1], the IC50 came out at 470 nM.

Molecule `O=C(C1CC12CCN(Cc1ccccc1)CC2)N1CCN(C2CCCCC2)CC1` (centres unmarked) [Example 23, (6-Benzyl-6-aza-spiro[2.5]oct-1-yl)-(4-cyclohexyl-piperazin-1-yl)-methanone] gave an IC50 in assay [1] of 306 nM.

On to `O=C(C1CC12CCN(C1CCOCC1)CC2)N1CCN(C2CCOCC2)CC1` (centres unmarked) [Example 24, [6-(Tetrahydro-pyran-4-yl)-6-aza-spiro[2.5]oct-1-yl]-[4-(tetrahydro-pyran-4-yl)-piperazin-1-yl]-methanone], for which the IC50 in assay [1] was 336 nM.

As for `CC(C)(C)OC(=O)CN1CCC2(CC1)CC2C(=O)N1CCN(C2CCC2)CC1` (centres unmarked) [Example 36, [1-(4-Cyclobutyl-piperazine-1-carbonyl)-6-aza-spiro[2.5]oct-6-yl]-acetic acid tert-butyl ester], the IC50 in assay [1] was 182 nM.

`O=C(C1CC12CCN(c1ccc3c(c1)OCO3)CC2)N1CCN(C2CCCCC2)CC1` (centres unmarked) [Example 47, (6-Benzo[1,3]dioxol-5-yl-6-aza-spiro[2.5]oct-1-yl)-(4-cyclohexyl-piperazin-1-yl)-methanone] yielded an IC50 in assay [1] of 5170 nM.

In the case of `O=C(C1CC12CCN(C1CCOCC1)CC2)N1CCN(CC2CCCCC2)CC1` (centres unmarked) [Example 2, (4-Cyclohexylmethyl-piperazin-1-yl)-[6-(tetrahydro-pyran-4-yl)-6-aza-spiro[2.5]oct-1-yl]-methanone], the IC50 in assay [1] stood at 390 nM.

Regarding `O=C(C1CC12CCN(c1cccc(Cl)n1)CC2)N1CCN(C2CCC2)CC1` (centres unmarked) [Example 42, [6-(6-Chloro-pyridin-2-yl)-6-aza-spiro[2.5]oct-1-yl]-(4-cyclobutyl-piperazin-1-yl)-methanone], the IC50 in assay [1] was determined as 594 nM.

As to `O=C(C1CC12CCN(CCOCc1ccccc1)CC2)N1CCN(C2CCCCC2)CC1` (centres unmarked) [Example 25, [6-(2-Benzyloxy-ethyl)-6-aza-spiro[2.5]oct-1-yl]-(4-cyclohexyl-piperazin-1-yl)-methanone], the IC50 in assay [1] came out at 419 nM.

With `COCCN1CCC2(CC1)CC2C(=O)N1CCN(C2CCCCC2)CC1` (centres unmarked) [Example 43, (4-Cyclohexyl-piperazin-1-yl)-[6-(2-methoxy-ethyl)-6-aza-spiro[2.5]oct-1-yl]-methanone], the IC50 in assay [1] turned out to be 615 nM.
